{"source": "patent US8148347B2", "about": "“Inhibition of interaction of PSD93 and PSDS95 with nNOS and NMDA receptors” (The Johns Hopkins University, priority 2000, dated 2012)", "assay_type_in_all_cases": "in vivo, rat", "key": {"Male Sprague-Dawley rats [1]": {"tested_on": "Male Sprague-Dawley rats", "assay": "radiant heat tail-flick test, baseline and NMDA-induced thermal hyperalgesia", "from_the_text": "To examine whether PSD-95/SAP90 was required for thermal hyperalgesia triggered through NMDA receptor activation, we made an antisense oligonucletide (OND) corresponding to the PDZ domain nucleotides 241 to 258 (5′-[…]-3′; SEQ ID NO: 1) of rat PSD-95/SAP90 mRNA, as well as the sense OND and missense OND (5′-[…]-3′; SEQ ID NO: 2). All of the ONDs were compared to the Gene Bank database (GenBank accession number M96853) and found not to be complementary to any registered nucleotide sequences. The effects of antisense, sense and missense ONDs on baseline and NMDA-induced tail-flick latencies were assessed. […] To identify that NMDA-induced thermal hyperalgesia was produced specifically through NMDA receptor activation but not non-NMDA receptor activation, we observed the effects of a selective NMDA receptor antagonist, MK-801, and a selective non-NMDA receptor antagonist, DNQX, on NMDA-induced facilitation of the tail-flick reflex. […] In addition, motor weakness or dysfunction was not observed in locomotor tests (including placing reflex, grasping reflex and righting reflex) in any of the treated animals including the antisense groups (data not shown).\nAnimal preparation and behavioral testing. All experiments were carried out with the approval of the Animal Care Committee at the Johns Hopkins University and were consistent with the ethical guidelines of the National Institutes of Health and the International Association for the Study of Pain. Male Sprague-Dawley rats (250-300 g) were implanted with an intrathecal PE-10 catheter into the subarachnoid space at the rostral level of the spinal cord lumbar enlargement through an incision at the atlanto-occipital membrane according to the method as described.^25,27 One week or more later, the rats were injected intrathecally with saline or ONDs every 24 h for 4 days. On the fifth day, saline, NMDA, MK-801+NMDA or DNQX+NMDA was given intrathecally. Nociception was evaluated by the radiant heat tail-flick test. The doses and time point of maximal effect of NMDA used in the present study were determined based on a previous study.^24 The tail-flick apparatus (Model 33B Tail Flick Analgesy Meter, IITC Life Science, Woodland Hills, Calif., USA) generated a beam of radiant heat that was focused on the underside of the tail, 5 cm from the tip. A cut-off time latency of 13.5 s was used to avoid tissue damage to the tail. Nociception was assessed by the time required to induce tail-flick after applying radiant heat to the skin of the tail. The latency of reflexive removal of the tail from the heat was measured automatically to the nearest 0.01 s. Tail-flick latency was measured five times, and the basal latency was defined as the mean. Tail-flick data were expressed as percentage change calculated by the formula: (trial latency−baseline latency)/(baseline latency)×100%. Finally, PE-10 catheter position from each animal was confirmed when lumbar enlargement segments were removed for western blot analysis. PCR analysis of PSD-95/SAP90 in rat spinal cord. The cDNA sequences encoding portions of the PSD-95/SAP90 were amplified using the following synthetic OND primers: PSD1 (5′-[…]-3′; SEQ ID NO: 3) and PSD2 (5′-[…]-3′; SEQ ID NO: 4) for amplification of PSD-95/SAP90 codon positions 789-1525. RNA samples (1 μg) from rat spinal cord, brain and muscle were reverse transcribed to generate first-strand cDNA. The PCR reactions were performed for 25 cycles. Each cycle included 30 s at 94° C., 30 s at 55° C., and 30 s at 71° C. The PCR products were directly cloned into the TA cloning vector (Invitrogen Co., San Diego, Calif., USA) and verified by automatic DNA sequencing. Fusion protein construction and preparation. cDNA sequence encoding portion of PSD-95/SAP90 was amplified by PCR and subcloned in-frame into PGEX-2T (GIBCO, Rockville, Md., USA) via the BamHI and EcoRI restriction digest sites. […]"}, "Male Sprague-Dawley rats [2]": {"tested_on": "Male Sprague-Dawley rats", "assay": "tests of locomotor function (placing, grasping, righting reflex) and general behaviors", "conditions": "saline pretreatment + 1.25 μg NMDA intrathecal; five trials, mean (SD)", "experimental": "The effects of ODNs on locomotor function were examined using the following methods.^52 The animals were organized randomly into six groups: control (saline); 12.5 antisense ODN; 25 μg antisense ODN; 50 μg antisense ODN; 50 μg sense ODN; 50 μg missense ODN. The rats were pretreated with ODNs or saline in the manner described above. On the fifth day, 10 μl of saline was injected intrathecally for each rat. In some saline or antisense ODN (50 μg)-treated rats, fresh NMDA solution (1.25 μg/10 μl) was injected intrathecally. The following tests were performed with the experimenter blind to which group was treated with the agents: (1) Placing reflex: The rat was held with the hind limbs slightly lower than the forelimbs, and the dorsal surfaces of the hind paws were brought into contact with the edge of a table. The experimenter recorded whether the hind paws were placed on the table surface reflexively; (2) Grasping reflex: The rat was placed on a wire grid and the experimenter recorded whether the hind paws grasped the wire on contact; (3) Righting reflex: The rat was placed on its back on a flat surface and the experimenter noted whether it immediately assumed the normal upright position. […] In addition, the rat general behaviors including spontaneous activity were observed."}, "Male Sprague-Dawley rats [3]": {"tested_on": "Male Sprague-Dawley rats", "assay": "blood pressure and heart rate during isoflurane anesthesia", "conditions": "saline-treated group, intrathecal NMDA 1.25 μg", "from_the_text": "(§1) On the fifth day after saline or ODNs injection, each rat was placed in a clear plastic cone and anesthetized with 5% isoflurane in oxygen for three to five minutes. After tracheostomy, the trachea of each animal was intubated with a 16-gauge polyethylene catheter. The inspired isoflurane concentration was reduced to 2%, and the animals breathed spontaneously until cannulation of a carotid artery and a jugular vein with PE-50 tubing was accomplished. The isoflurane concentration was decreased further to 1.5%, and ventilation was controlled by a Harvard Animal Respirator (Harvard Apparatus, South Natick, Mass.) adjusted according to the measurement of arterial blood gases to maintain normal partial pressure of oxygen (PO2=91-94 mmHg), partial pressure of carbon dioxide (PCO2=33-41 mmHg) and pH (7.4-7.44). Electrocardiography and systolic and diastolic blood pressure were monitored using a Grass Polygraph (Astroumed Grass, Quincy, Mass.) and Gould Pressure Transducer (Gould, Cleveland, Ohio). Rectal temperature was maintained between 36.5 and 37.5° C. by use of a heating blanket and warming lights.\n(§2) In some saline-treated rats, after initial baseline MAC determination, NMDA at the dose of 1.25 μg^38 or saline was injected intrathecally in a volume of 10 μl saline, followed by an injection of 10 μl saline to flush the catheter. Fresh NMDA solution was prepared for each experiment. […] At this isoflurane concentration, 10 min after the intrathecal injection of NMDA, the animals were tested again for reactivity to tail clamp. The concentration of isoflurane was increased, and response to tail clamp was checked every 12-15 min thereafter until a negative response was achieved. In some antisense ODN (50 μg)-treated rats, after initial MAC determination, NMDA or saline was also administered intrathecally. The MAC for isoflurane was again determined following the aforementioned procedures."}, "Male Sprague-Dawley rats [4]": {"tested_on": "Male Sprague-Dawley rats", "assay": "measurement of isoflurane MAC (tail clamp)", "conditions": "saline-treated group, intrathecal NMDA 1.25 μg", "experimental": "The ODNs were dissolved in saline before administration. As described in the previous work,^49 the rats were injected intrathecally with saline (10 μl) (control), antisense ODNs (12.5, 25, 50 μg/10 μl), sense ODN (50 μg/10 μl) and missense ODN (50 μg/10 μl), respectively, followed by an injection of 10 μl of saline to flush the catheter, every 24 h for 4 days.\nas §1\nA PE-10 catheter was introduced through and beyond the endotracheal tube until obstruction to passage was met and then withdrawn 1 to 2 mm. For isoflurane MAC measurement, the PE-10 catheter was connected to a parameter airway gas monitor (Datex-Engstrom, Inc., Tewksbury, Mass.). After stabilizing about 30 minutes, MAC was measured according to the methods described previously^34 using a long hemostat (8-inch Rochester Dean Hemostatic Forceps) clamped to the first ratchet lock on the tail for 1 min. The tail was always stimulated proximal to a previous test site. Gross movement of the head, extremities, or body was taken as a positive test result, whereas grimacing, swallowing, chewing, or tail flick were considered negative results. The isoflurane concentration was reduced in decrements of 0.12 to 0.15% until the negative response became positive, with 12-15 min equilibration allowed after changes in concentration.^50,51 The MAC was considered to be the concentration midway between the highest concentration that permitted movement in response to the stimulus and the lowest concentration that prevented movement. Finally, intrathecal PE-10 catheter position from each animal was confirmed.\nas §2"}}, "data": [{"smiles": "O=[N+]([O-])c1cc2nc(O)c(O)nc2cc1[N+](=O)[O-]", "note": "[DNQX]", "values": [{"measurement": "facilitation of the tail-flick reflex stimulated by NMDA", "setting": "Male Sprague-Dawley rats [1]; intrathecal DNQX 20 nM/10 μl", "result": "had no effect"}, {"measurement": "ΔTF latency (%)", "setting": "Male Sprague-Dawley rats [1]; intrathecal DNQX 20 nM/10 μl + NMDA", "result": "−22.6", "unit": "%"}]}, {"smiles": "C[C@]12N[C@H](Cc3ccccc31)c1ccccc12", "note": "[MK-801]", "values": [{"measurement": "facilitation of the tail-flick reflex stimulated by NMDA", "setting": "Male Sprague-Dawley rats [1]; intrathecal MK-801 10 nM/10 μl", "result": "completely abolished"}, {"measurement": "ΔTF latency (%)", "setting": "Male Sprague-Dawley rats [1]; intrathecal MK-801 10 nM/10 μl + NMDA", "result": 0.9, "unit": "%"}]}, {"smiles": "CN[C@H](CC(=O)O)C(=O)O", "note": "[NMDA, N-methyl-D-aspartate]", "values": [{"measurement": "Grasping", "setting": "Male Sprague-Dawley rats [2]", "result": "5 (0)"}, {"measurement": "Placing", "setting": "Male Sprague-Dawley rats [2]", "result": "5 (0)"}, {"measurement": "Righting", "setting": "Male Sprague-Dawley rats [2]", "result": "5 (0)"}, {"measurement": "ΔTF latency (%)", "setting": "Male Sprague-Dawley rats [1]; NMDA alone, intrathecal 10 nM/10 μl", "result": "−25.84", "unit": "%"}, {"measurement": "facilitation of the tail-flick reflex", "setting": "Male Sprague-Dawley rats [1]; intrathecal NMDA 5 nM/10 μl (data not shown)", "result": "induced a facilitation of the tail-flick reflex"}, {"measurement": "tail-flick latency after NMDA", "setting": "Male Sprague-Dawley rats [1]; intrathecal NMDA 10 nM/10 μl, baseline 6.58±0.57", "result": "4.88 ± 0.41", "unit": "s"}, {"measurement": "Heart rate", "setting": "Male Sprague-Dawley rats [3]", "result": "529.20±55.20", "unit": "beats/min"}, {"measurement": "diastolic blood pressure", "setting": "Male Sprague-Dawley rats [3]", "result": "118.30±7.81", "unit": "mmHg"}, {"measurement": "systolic blood pressure", "setting": "Male Sprague-Dawley rats [3]", "result": "135.70±3.38", "unit": "mmHg"}, {"measurement": "increase from isoflurane control MAC", "setting": "Male Sprague-Dawley rats [4]", "result": 15, "unit": "%"}]}]}
